compound: CC1(C)CCC(CN2CCN(c3ccc(C(=O)NS(=O)(=O)c4ccc(NCC5CCOCC5)c([N+](=O)[O-])c4)c(Oc4cnc5[nH]ccc5c4)c3)CC2)=C(c2ccc(Cl)cc2)C1 [Venetoclax] + N=C(N)NC(=N)NCCc1ccccc1 [Phenformin] (partner 250 µM); test: relative viability (nuclei count vs DMSO), 5 days (fraction); higher = more cells survive; conditions: first compound 1 µM
Procedure, shortened: (§1)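 Relative viability equals treated-well nuclei counts divided by vehicle-well nuclei counts. Counts came from 4× images of lung cancer cell lines grown in 1536-well plates for 5 days after pin-tool dosing on the day after seeding. Dosing used one drug alone or a fixed anchor-drug dose plus five library-drug doses (not always all listed) in √10 steps, and values are medians of duplicate plates.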

Cell Line	relative viability
NCI-H1915	0.375
NCI-H2087	0.461
HCC-366	0.545
NCI-H1793	0.303
RERF-LC-KJ	0.442
EKVX	0.233
LCLC-103H	0.333
NCI-H1651	0.342

compound: CC1(C)CCC(CN2CCN(c3ccc(C(=O)NS(=O)(=O)c4ccc(NCC5CCOCC5)c([N+](=O)[O-])c4)c(Oc4cnc5[nH]ccc5c4)c3)CC2)=C(c2ccc(Cl)cc2)C1 [Venetoclax] + COc1cccc2cc(-c3nc([C@H]4CC[C@H](C(=O)O)CC4)n4ncnc(N)c34)[nH]c12 [OSI-027] (partner 0.5 µM); test: as above; conditions: first compound 0.01 µM
Procedure, shortened: as §1

Cell Line	relative viability
BEN	0.291
HCC-15	0.653
HCC-827	0.799
NCI-H460	0.681
LU99A	0.288
NCI-H2085	0.838
A-427	0.449
NCI-H520	0.262
NCI-H838	0.493
NCI-H1792	0.695
NCI-H3122	1.09
NCI-H1395	0.623
201T	0.728
NCI-H1993	0.562
HOP-62	0.879
NCI-H1355	0.409
NCI-H2405	0.64

Cell Line	relative viability
NCI-H1437	0.942
NCI-H661	0.682
CAL-12T	0.641
H3255	0.577
NCI-H2347	0.32
NCI-H1975	0.768
NCI-H441	0.569
NCI-H1650	0.531
NCI-H1915	0.587
NCI-H2087	0.534
HCC-366	0.873
NCI-H1793	0.299
RERF-LC-KJ	0.555
EKVX	0.668
LCLC-103H	0.5
NCI-H1651	0.804

same assay, conditions: first compound 0.03162 µM

Cell Line	relative viability
BEN	0.295
HCC-15	0.67
HCC-827	0.839
NCI-H460	0.592
LU99A	0.321
NCI-H2085	0.769
A-427	0.572
NCI-H520	0.287
NCI-H838	0.405
NCI-H1792	0.751
NCI-H3122	0.979
NCI-H1395	0.603
201T	0.724
NCI-H1993	0.505
HOP-62	0.861
NCI-H1355	0.5
NCI-H2405	0.711

Cell Line	relative viability
NCI-H1437	0.888
NCI-H661	0.789
CAL-12T	0.693
H3255	0.541
NCI-H2347	0.417
NCI-H1975	0.788
NCI-H441	0.566
NCI-H1650	0.856
NCI-H1915	0.624
NCI-H2087	0.735
HCC-366	0.958
NCI-H1793	0.37
RERF-LC-KJ	0.552
EKVX	0.731
LCLC-103H	0.492
NCI-H1651	0.714

same assay, conditions: first compound 0.1 µM

Cell Line	relative viability
BEN	0.289
HCC-15	0.721
HCC-827	0.776
NCI-H460	0.585
LU99A	0.316
NCI-H2085	0.707
A-427	0.434
NCI-H520	0.209
NCI-H838	0.37
NCI-H1792	0.603
NCI-H3122	0.983
NCI-H1395	0.605
201T	0.687
NCI-H1993	0.519
HOP-62	0.842
NCI-H1355	0.38
NCI-H2405	0.624

Cell Line	relative viability
NCI-H1437	0.845
NCI-H661	0.705
CAL-12T	0.639
H3255	0.493
NCI-H2347	0.377
NCI-H1975	0.667
NCI-H441	0.608
NCI-H1650	0.606
NCI-H1915	0.596
NCI-H2087	0.456
HCC-366	0.628
NCI-H1793	0.207
RERF-LC-KJ	0.577
EKVX	0.646
LCLC-103H	0.502
NCI-H1651	0.62

same assay, conditions: first compound 0.3162 µM

Cell Line	relative viability
BEN	0.281
HCC-15	0.658
HCC-827	0.733
NCI-H460	0.62
LU99A	0.338
NCI-H2085	0.746
A-427	0.487
NCI-H520	0.253
NCI-H838	0.377
NCI-H1792	0.638
NCI-H3122	0.871
NCI-H1395	0.656
201T	0.774
NCI-H1993	0.486
HOP-62	0.838
NCI-H1355	0.386
NCI-H2405	0.612

Cell Line	relative viability
NCI-H1437	0.763
NCI-H661	0.681
CAL-12T	0.549
H3255	0.506
NCI-H2347	0.485
NCI-H1975	0.702
NCI-H441	0.575
NCI-H1650	0.783
NCI-H1915	0.612
NCI-H2087	0.539
HCC-366	0.95
NCI-H1793	0.239
RERF-LC-KJ	0.577
EKVX	0.76
LCLC-103H	0.404
NCI-H1651	0.596

same assay, conditions: first compound 1 µM

Cell Line	relative viability
BEN	0.281
HCC-15	0.549
HCC-827	0.755
NCI-H460	0.515
LU99A	0.295
NCI-H2085	0.53
A-427	0.46
NCI-H520	0.217
NCI-H838	0.435
NCI-H1792	0.721
NCI-H3122	0.909
NCI-H1395	0.662
201T	0.628
NCI-H1993	0.605
HOP-62	0.78
NCI-H1355	0.355
